Test results reported in paper PMC6597265 (ACS chemical neuroscience, 2019).
Where two headings read alike, the source gives them in different places.

Tests used:
native NMDA receptors [1] = format: binding; conditions: native iGluRs, rat synaptosomes
GluN1/GluN2A [2] = target: GluN1/GluN2A (Rattus norvegicus, UniProt P35439+Q00959); format: cell-based
GluN1/GluN2A [3] = target: GluN1/GluN2A (Rattus norvegicus, UniProt Q00959); format: cell-based; conditions: from Ki values
GluN1/GluN2B = GluN1/GluN2B (Rattus norvegicus, UniProt P35439+Q00960); format: cell-based
GluN1/GluN2C = GluN1/GluN2C (Rattus norvegicus, UniProt P35439+Q00961); format: cell-based
GluN1/GluN2D = GluN1/GluN2D (Rattus norvegicus, UniProt P35439+Q62645); format: cell-based
[4] = target: recombinant rat homomeric GluK3 (Rattus norvegicus, UniProt P42264); experiment: Binding affinity at cloned homomeric GluK3 expressed in sf9 cells, [3H]-KA; conditions: for GluK1/K3 (GluK1/GluK3 Ki selectivity ratio): ratio of Ki values at cloned homomeric receptors
human EAAT1 = human EAAT1 (Homo sapiens, UniProt P43003); experiment: [3H]-D-Asp uptake assay, EAAT1 stably expressed in HEK293 cells; format: cell-based
human EAAT2 = human EAAT2 (Homo sapiens, UniProt P43004); experiment: [3H]-D-Asp uptake assay, EAAT2 stably expressed in HEK293 cells; format: cell-based
human EAAT3 = target: T1, human EAAT3 (Homo sapiens, UniProt P43005); experiment: [3H]-D-Asp uptake assay, EAAT3 stably expressed in HEK293 cells; format: cell-based
T1 sequence (P43005 1-524): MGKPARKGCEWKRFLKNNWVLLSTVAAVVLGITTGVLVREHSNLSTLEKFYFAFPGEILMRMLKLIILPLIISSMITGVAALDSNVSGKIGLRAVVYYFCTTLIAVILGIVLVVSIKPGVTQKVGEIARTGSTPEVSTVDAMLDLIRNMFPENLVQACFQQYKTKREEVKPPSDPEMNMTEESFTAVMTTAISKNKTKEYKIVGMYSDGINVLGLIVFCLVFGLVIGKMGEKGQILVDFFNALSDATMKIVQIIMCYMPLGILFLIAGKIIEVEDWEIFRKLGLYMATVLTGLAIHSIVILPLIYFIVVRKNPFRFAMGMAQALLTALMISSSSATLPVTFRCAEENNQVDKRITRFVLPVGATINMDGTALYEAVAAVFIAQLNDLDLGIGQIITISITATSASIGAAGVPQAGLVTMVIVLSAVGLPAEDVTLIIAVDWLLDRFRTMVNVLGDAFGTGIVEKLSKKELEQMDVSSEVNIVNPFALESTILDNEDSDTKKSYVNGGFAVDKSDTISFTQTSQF

native AMPA receptors [5] = conditions: read-out: IC50 AMPA; native receptors; ref [67]; cited from earlier work
native KA receptors [6] = conditions: native receptors; ref [67]; cited from earlier work
native NMDA receptors [7] = conditions: read-out: Ki NMDA; native receptors; ref [67]; cited from earlier work
native AMPA receptors [8] = experiment: Binding affinity at native AMPA receptors, [3H]-AMPA, rat cortical synaptosomes; conditions: native iGluRs
native KA receptors [9] = experiment: Binding affinity at native KA receptors, [3H]-KA, rat cortical synaptosomes; conditions: native iGluRs, mean of at least three experiments
[10] = target: recombinant rat homomeric GluK1 (Rattus norvegicus, UniProt P22756); experiment: Binding affinity at cloned homomeric GluK1 expressed in sf9 cells, [3H]-NF608
[11] = target: recombinant rat homomeric GluK2 (Rattus norvegicus, UniProt P42260); experiment: Binding affinity at cloned homomeric GluK2 expressed in sf9 cells, [3H]-KA

recombinant rat homomeric GluK3, sequence (P42264 32-919): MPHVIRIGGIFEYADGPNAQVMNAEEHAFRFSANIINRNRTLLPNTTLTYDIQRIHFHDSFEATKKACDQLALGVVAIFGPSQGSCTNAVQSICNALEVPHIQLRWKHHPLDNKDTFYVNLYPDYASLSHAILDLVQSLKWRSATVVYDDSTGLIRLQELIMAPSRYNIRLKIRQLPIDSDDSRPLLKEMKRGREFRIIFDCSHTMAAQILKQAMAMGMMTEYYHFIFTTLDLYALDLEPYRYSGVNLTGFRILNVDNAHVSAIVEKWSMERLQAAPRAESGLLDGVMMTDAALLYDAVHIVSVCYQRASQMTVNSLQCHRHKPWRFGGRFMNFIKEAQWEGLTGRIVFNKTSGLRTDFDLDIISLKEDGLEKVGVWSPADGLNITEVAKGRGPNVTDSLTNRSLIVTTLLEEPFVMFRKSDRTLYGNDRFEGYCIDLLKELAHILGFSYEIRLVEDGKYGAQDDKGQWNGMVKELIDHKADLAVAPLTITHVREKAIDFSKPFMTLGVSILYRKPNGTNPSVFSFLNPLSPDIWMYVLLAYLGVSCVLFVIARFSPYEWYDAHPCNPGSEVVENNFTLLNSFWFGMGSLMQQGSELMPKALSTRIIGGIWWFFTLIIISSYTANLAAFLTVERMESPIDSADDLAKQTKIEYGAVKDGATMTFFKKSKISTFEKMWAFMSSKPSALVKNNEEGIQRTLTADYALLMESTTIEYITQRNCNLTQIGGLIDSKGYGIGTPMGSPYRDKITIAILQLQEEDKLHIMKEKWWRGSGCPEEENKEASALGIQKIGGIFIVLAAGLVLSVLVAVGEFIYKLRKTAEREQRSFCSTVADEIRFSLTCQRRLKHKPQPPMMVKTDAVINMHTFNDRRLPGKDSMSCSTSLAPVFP
human EAAT2, sequence (P43004 whole entry): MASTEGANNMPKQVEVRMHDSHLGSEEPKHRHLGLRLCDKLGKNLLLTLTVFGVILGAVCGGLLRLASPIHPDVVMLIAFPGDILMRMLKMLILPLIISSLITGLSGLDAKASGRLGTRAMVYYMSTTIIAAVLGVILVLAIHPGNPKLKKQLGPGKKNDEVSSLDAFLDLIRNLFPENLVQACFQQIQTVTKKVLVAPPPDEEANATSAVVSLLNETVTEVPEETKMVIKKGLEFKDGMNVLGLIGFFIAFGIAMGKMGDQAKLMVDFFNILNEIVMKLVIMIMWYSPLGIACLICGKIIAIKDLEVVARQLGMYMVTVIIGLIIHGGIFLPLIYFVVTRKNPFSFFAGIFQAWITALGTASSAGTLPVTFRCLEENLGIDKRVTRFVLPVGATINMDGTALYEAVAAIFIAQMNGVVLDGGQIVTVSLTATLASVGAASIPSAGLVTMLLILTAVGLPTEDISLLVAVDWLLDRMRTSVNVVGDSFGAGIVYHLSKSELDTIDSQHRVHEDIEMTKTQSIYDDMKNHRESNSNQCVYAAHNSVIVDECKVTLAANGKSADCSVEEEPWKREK
human EAAT1, sequence (P43003 whole entry): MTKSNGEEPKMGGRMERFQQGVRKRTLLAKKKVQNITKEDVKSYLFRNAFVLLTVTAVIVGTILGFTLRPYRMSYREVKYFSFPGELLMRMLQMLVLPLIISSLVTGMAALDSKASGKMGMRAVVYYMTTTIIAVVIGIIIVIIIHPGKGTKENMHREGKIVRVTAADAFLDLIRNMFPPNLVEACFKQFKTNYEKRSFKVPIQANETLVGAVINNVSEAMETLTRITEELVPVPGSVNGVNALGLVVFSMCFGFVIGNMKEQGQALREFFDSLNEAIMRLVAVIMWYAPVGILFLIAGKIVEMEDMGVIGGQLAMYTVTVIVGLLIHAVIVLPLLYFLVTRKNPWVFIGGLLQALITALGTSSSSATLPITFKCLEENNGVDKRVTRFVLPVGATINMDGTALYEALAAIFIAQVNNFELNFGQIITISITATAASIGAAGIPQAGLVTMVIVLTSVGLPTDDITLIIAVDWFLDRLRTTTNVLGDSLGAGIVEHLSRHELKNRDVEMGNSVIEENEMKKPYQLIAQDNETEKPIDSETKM
GluN1/GluN2B, sequence (Q00960 27-1482, other chains not shown): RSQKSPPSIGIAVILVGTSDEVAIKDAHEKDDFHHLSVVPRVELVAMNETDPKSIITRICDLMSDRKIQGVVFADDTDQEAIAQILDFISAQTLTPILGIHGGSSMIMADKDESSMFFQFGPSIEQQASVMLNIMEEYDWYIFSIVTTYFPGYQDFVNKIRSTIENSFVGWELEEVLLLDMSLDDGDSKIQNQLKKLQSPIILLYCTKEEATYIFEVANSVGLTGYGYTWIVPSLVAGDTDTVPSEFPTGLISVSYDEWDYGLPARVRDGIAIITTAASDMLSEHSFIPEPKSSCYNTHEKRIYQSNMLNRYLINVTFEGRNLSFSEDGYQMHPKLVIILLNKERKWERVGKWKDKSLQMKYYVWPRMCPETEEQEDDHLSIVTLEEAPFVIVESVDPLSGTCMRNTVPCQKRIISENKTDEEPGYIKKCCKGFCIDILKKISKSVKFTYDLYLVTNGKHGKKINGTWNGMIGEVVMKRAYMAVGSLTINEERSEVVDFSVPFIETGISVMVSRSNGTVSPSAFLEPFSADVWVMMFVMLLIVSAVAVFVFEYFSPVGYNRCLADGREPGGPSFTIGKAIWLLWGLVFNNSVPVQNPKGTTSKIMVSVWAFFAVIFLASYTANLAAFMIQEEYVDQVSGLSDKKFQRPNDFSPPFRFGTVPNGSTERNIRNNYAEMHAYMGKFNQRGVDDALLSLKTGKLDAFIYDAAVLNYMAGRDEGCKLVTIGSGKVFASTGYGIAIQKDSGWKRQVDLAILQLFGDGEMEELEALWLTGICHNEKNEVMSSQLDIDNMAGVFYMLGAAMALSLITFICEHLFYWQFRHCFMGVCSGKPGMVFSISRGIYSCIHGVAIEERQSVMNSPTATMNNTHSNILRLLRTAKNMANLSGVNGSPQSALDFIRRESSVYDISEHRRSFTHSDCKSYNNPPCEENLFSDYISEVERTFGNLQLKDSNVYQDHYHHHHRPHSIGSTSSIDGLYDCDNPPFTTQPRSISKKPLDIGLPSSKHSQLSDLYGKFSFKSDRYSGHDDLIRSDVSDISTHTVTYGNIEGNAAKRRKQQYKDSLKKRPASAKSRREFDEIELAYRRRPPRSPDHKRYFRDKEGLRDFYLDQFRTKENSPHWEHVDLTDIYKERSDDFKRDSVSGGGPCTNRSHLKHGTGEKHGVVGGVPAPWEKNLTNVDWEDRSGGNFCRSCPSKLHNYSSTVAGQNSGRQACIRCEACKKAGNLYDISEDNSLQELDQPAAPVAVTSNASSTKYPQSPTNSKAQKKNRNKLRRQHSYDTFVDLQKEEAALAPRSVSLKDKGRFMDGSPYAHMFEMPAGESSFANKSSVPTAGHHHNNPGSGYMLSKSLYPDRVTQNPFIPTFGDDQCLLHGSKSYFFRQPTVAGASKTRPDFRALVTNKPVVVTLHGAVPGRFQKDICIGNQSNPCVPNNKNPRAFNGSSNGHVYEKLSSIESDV
GluN1/GluN2C, sequence (Q00961 20-1237, other chains not shown): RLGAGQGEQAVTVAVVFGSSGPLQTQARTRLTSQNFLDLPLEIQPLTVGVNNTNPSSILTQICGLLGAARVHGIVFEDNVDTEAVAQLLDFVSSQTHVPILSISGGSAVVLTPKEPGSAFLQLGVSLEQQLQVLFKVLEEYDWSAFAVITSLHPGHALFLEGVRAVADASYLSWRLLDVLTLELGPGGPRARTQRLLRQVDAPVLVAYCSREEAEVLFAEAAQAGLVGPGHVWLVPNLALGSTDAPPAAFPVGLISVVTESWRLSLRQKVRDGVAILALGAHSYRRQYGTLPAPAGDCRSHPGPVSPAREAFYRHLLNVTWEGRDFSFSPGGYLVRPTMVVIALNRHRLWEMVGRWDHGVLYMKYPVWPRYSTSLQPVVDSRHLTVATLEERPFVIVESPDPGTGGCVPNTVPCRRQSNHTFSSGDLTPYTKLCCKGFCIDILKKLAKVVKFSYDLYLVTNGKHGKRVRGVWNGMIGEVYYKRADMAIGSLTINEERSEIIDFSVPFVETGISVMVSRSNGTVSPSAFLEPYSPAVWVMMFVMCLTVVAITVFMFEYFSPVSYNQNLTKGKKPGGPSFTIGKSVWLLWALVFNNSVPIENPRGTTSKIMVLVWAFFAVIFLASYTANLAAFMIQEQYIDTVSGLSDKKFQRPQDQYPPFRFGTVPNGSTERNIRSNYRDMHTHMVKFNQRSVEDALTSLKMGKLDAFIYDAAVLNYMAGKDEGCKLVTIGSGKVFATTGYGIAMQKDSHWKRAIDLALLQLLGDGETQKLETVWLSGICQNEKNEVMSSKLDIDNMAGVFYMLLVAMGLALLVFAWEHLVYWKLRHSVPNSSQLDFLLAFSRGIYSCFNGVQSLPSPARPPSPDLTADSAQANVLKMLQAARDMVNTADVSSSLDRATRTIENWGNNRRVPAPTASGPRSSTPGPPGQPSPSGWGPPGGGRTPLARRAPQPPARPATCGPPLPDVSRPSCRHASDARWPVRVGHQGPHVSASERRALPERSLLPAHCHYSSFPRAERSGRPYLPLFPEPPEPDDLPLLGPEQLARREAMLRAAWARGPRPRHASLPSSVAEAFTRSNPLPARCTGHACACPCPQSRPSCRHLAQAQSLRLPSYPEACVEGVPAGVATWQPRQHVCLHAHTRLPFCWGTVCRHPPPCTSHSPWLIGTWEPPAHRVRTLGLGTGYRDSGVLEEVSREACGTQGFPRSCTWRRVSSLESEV

Cl.O=C(O)C(Cc1nnn[nH]1)[C@@H]1CCN[C@H]1C(=O)O (relative stereo) [3q-s3,4, trans-3-(1-Carboxy-2-(1H-tetrazol-5-yl)ethyl)pyrrolidine-2-carboxylic Acid Hydrochloride]
pKi NMDA (mean ± SEM, in brackets) (native NMDA receptors [1]): 6.61 ± 0.07
Ki (GluN1/GluN2A [2]): 0.61 ± 0.02 µM
fold preference as antagonist for GluN1/GluN2A over GluN1/GluN2B-D (GluN1/GluN2A [3]): 4.4−100 fold
Ki (GluN1/GluN2B): 2.7 ± 0.1 µM
Ki (GluN1/GluN2C): 12 ± 1 µM
Ki (GluN1/GluN2D): 62 ± 9 µM

Cl.O=C(O)C[C@H]1CCN[C@@H]1C(=O)O [3a, (2S,3R)-3-(Carboxymethyl)pyrrolidine-2-carboxylic Acid Hydrochloride]
GluK1/K3 (GluK1/GluK3 Ki selectivity ratio) [4]: 6
IC50 (human EAAT1; read-out: IC50 EAAT1, HEK293 cells, [3H]-D-Asp uptake): > 300 µM
IC50 (human EAAT2; read-out: IC50 EAAT2, HEK293 cells, [3H]-D-Asp uptake): > 300 µM
IC50 (human EAAT3; read-out: IC50 EAAT3, HEK293 cells, [3H]-D-Asp uptake): > 300 µM
IC50 (native AMPA receptors [5]): 106 µM
IC50 KA (native KA receptors [6]): 1.6 µM
Ki (native NMDA receptors [7]): 0.5 µM

Cl.Cl.NC(C(=O)O)[C@@H]1CCN[C@H]1C(=O)O (relative stereo) [3k, trans-3-(Amino(carboxy)methyl)pyrrolidine-2-carboxylic Acid Dihydrochloride]
pIC50 AMPA (mean ± SEM, in brackets) (native AMPA receptors [8]): 4.51 ± 0.03
IC50 KA (native KA receptors [9]): >100 µM
pKi NMDA (mean ± SEM, in brackets) (native NMDA receptors [1]): 5.06 ± 0.02
Ki [10]: > 100 µM
Ki [11]: > 100 µM
Ki [4]: 33 ± 2.4 µM
GluK1/K3 (GluK1/GluK3 Ki selectivity ratio) [4]: >3
IC50 (human EAAT1): > 300 µM
IC50 (human EAAT2): > 300 µM
IC50 (human EAAT3): > 300 µM
